In ChEMBL document CHEMBL1921695, “Cembranolides from the leaves of Croton gratissimus” (J Nat Prod, 2011):
In brackets after ≈: the same amount, converted by molar mass.

System: Plasmodium falciparum
Test: Antiplasmodial activity against chloroquine-sensitive Plasmodium falciparum D10 infected in human erythrocytes after 3 to 4 days by lactate dehydrogenase assay
Assay type: functional, organism-based

IC50 [µg/mL] | SMILES
20.8 (≈ 65.3 µM) | C/C1=C\CC[C@](C)(O)/C=C/[C@@H](C(C)C)CCC2=C[C@@H](C1)OC2=O (relative stereo)
13.5 (≈ 34.4 µM) | C=C1C[C@@H]2C=C(CC[C@](O)(C(C)C)/C=C/[C@@](C)(O)CC[C@H]1OC(C)=O)C(=O)O2 (relative stereo)
